According to PubChem BioAssay AID1208 (EPA DSSTox, 2008):
Calls of active or inactive are those of the source.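 How the source made its calls: active means at least one rat sex group has a carcinogenic potency value and tumor site recorded; inconclusive means only rat studies were judged inadequate by the national testing program; inactive means no potency or tumor site, with negative rat experiments.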 Where a SMILES comes first, the peptide text is derived from it.

Test system: rat chronic carcinogenicity bioassay, TD50
Assay: DSSTox (CPDBAS) Carcinogenic Potency Database Summary Rat Bioassay Results
Conditions: for Potency: stronger effect = lower value; for outcome: TD50_Rat_Note: no positive results
Method in brief: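 Chronic long-term rat cancer bioassays from literature and NCI/NTP, taking the most positive result per sex. TD50 in mmol converted to a 1–100 Activity Score from log10(1/TD50). Mixtures lacking TD50 scored 50.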

[1] = TargetSites_Rat_Female: no positive results
[2] = TD50_Rat_Note: TD50 is harmonic mean of more than one positive test, TargetSites_Rat_Female: liver
[3] = TD50_Rat_Note: TD50 is harmonic mean of more than one positive test, TargetSites_Rat_Female: stomach

CN(CCCO)N=O
Potency (TD50_Rat_Note: TD50 is harmonic mean of more than one positive test, TargetSites_Rat_Female: liver, lung): 1.66 mg/kg/day

CCCC(CCC)C(=O)O
Potency (TargetSites_Rat_Female: uterus): 1300 mg/kg/day

O=C1O[C@H]([C@@H](O)CO)C(O)=C1O
outcome [1]: inactive; no positive results

C/C=C/C=O
Potency: 4.2 mg/kg/day

CC(O)CN(CCO)N=O (configuration not stated)
Potency (TargetSites_Rat_Female: esophagus, liver, vascular system): 1.02 mg/kg/day

CN(C)NC(=O)CCC(=O)O
Potency (TD50_Rat_Note: no positive results are statistically significant, TargetSites_Rat_Female: uterus): 2500 mg/kg/day

CC(C)O
outcome [1]: inactive; no positive results

Cc1ccc2c(c1[N+](=O)[O-])C(=O)c1ccccc1C2=O
Potency [2]: 84.8 mg/kg/day

ClC(Br)Br
outcome [1]: inactive; no positive results

CC(COc1ccccc1)N(CCCl)Cc1ccccc1 (configuration not stated)
Potency (TD50_Rat_Note: positive test results only by intraperitoneal or intravenous injection, TD50 is harmonic mean of more than one positive, TargetSites_Rat_Female: peritoneal cavity): 1.09 mg/kg/day

OCCN(CCO)c1nc(-c2cccs2)nc2ccccc12
outcome [1]: inactive

FC(F)(Cl)C(F)(Cl)Cl
outcome [1]: inactive; no positive results

C=Cc1ccccc1
Potency (TargetSites_Rat_Female: mammary gland): 23.3 mg/kg/day

O=S(=O)(O)c1cc(S(=O)(=O)O)c2c(N=Nc3ccccc3)c(O)ccc2c1
outcome [1]: inactive; no positive results

CC[C@H]1OC(=O)[C@H](C)[C@@H](O[C@H]2C[C@@](C)(OC)[C@@H](O)[C@H](C)O2)[C@H](C)[C@@H](O[C@@H]2O[C@H](C)C[C@H](N(C)C)[C@H]2O)[C@](C)(O)C[C@@H](C)C(=O)[C@H](C)[C@@H](O)[C@]1(C)O
outcome [1]: inactive; no positive results

C/C=C/C=C/C=O
Potency [3]: 62.2 mg/kg/day

NCCCCCCCCCCC(=O)O
Potency [1]: 1100 mg/kg/day

CC1=NN(c2ccccc2)C(=O)C1
outcome [1]: inactive; no positive results

CCC(=O)C(CC(C)N(C)C)(c1ccccc1)c1ccccc1 (configuration not stated)
outcome [1]: inactive; no positive results

Cc1ccc(O)c(O)c1
Potency (TD50_Rat_Note: TD50 is harmonic mean of more than one positive test, harmonic mean of TD50 includes a value for upper 99% confidence li, TargetSites_Rat_Female: stomach): 248 mg/kg/day

CC1=CC(=O)CC(C)(C)C1
Potency [1]: 1210 mg/kg/day

N=C1C=CC(=C(c2ccc(N)cc2)c2ccc(N)cc2)C=C1
Potency (TD50_Rat_Note: TD50 is harmonic mean of more than one positive test, TargetSites_Rat_Female: ear Zymbals gland, subcutaneous tissue, thyroid gland): 39.4 mg/kg/day

CC1CN(N=O)CC(C)N1C(=O)c1ccccc1 (configuration not stated)
Potency (TargetSites_Rat_Female: stomach): 9.66 mg/kg/day

NS(=O)(=O)c1cc2c(cc1Cl)NCNS2(=O)=O
outcome [1]: inactive; no positive results

COC(=O)[C@H](Cc1ccccc1)NC(=O)[C@@H](N)CC(=O)O (H-Asp-Phe-OMe)
outcome [1]: inactive; no positive results

C=COC(C)=O
Potency (TD50_Rat_Note: TD50 is harmonic mean of more than one positive test, greater than ten-fold variation among TD50 values for positive res, TargetSites_Rat_Female: liver, nasal cavity, thyroid gland, uterus): 341 mg/kg/day

O=NN1CCCC1c1cccnc1 (configuration not stated)
Potency: 0.0957 mg/kg/day

O=C(Nc1ccc2c(c1)Cc1ccccc1-2)C(F)(F)F
Potency (TargetSites_Rat_Female: ear Zymbals gland, liver, mammary gland): 1.62 mg/kg/day

COc1ccc(O)cc1
Potency [3]: 658 mg/kg/day

Oc1ccc2c(c1)OCO2
Potency [3]: 1350 mg/kg/day

O=NO
Potency (TD50_Rat_Note: TD50 is harmonic mean of more than one positive test, TargetSites_Rat_Female: liver, TargetSites_Rat_BothSexes: hematopoietic system): 167 mg/kg/day

N=c1ccn2c(n1)O[C@H]1[C@H](O)[C@@H](CO)O[C@H]12
outcome [1]: inactive; no positive results

[Cd+2].[Cl-].[Cl-]
Potency (TD50_Rat_Note: TD50 is harmonic mean of more than one positive test, greater than ten-fold variation among TD50 values for positive res, TargetSites_Rat_Female: lung): 0.0136 mg/kg/day

CCN(CC)C(=S)S[Te](SC(=S)N(CC)CC)(SC(=S)N(CC)CC)SC(=S)N(CC)CC
outcome [1]: inactive; no positive results

CCCCNC(=O)N(CCCC)N=O
Potency (TargetSites_Rat_Female: hematopoietic system, mammary gland): 4.28 mg/kg/day

[Cl-].[Cl-].[Sn+2]
outcome [1]: inactive; no positive results

Brc1cc(-c2ccc(Br)c(Br)c2Br)cc(Br)c1Br
outcome [1]: inactive

CC1=C2C(=CO[C@@H](C)[C@@H]2C)C(=O)C(C(=O)O)=C1O
Potency (TD50_Rat_Note: TD50 value is overestimated as upper 99% confidence limit from study with 100% tumor incidence but no lifetable, TD50 is): 7.48 mg/kg/day

c1ccc(N=Nc2ccccc2)cc1
Potency (TD50_Rat_Note: TD50 is harmonic mean of more than one positive test, TargetSites_Rat_Female: spleen): 24.1 mg/kg/day

CC(=O)Nc1cccc2c1-c1ccccc1C2
outcome [1]: inactive

CCc1ccccc1
Potency (TD50_Rat_Note: TD50 is harmonic mean of more than one positive test, greater than ten-fold variation among TD50 values for positive res, TargetSites_Rat_Female: Maltoni head cancers, kidney): 72.6 mg/kg/day

O=P(O)(OCC(Br)CBr)OCC(Br)CBr (configuration not stated)
Potency (TD50_Rat_Note: TD50 is harmonic mean of more than one positive test, TargetSites_Rat_Female: esophagus, liver, small intestine, stomach): 32 mg/kg/day

O=NN1CC=CCC1
Potency (TD50_Rat_Note: TD50 is harmonic mean of more than one positive test, harmonic mean of TD50 includes a value for upper 99% confidence li, TargetSites_Rat_Female: esophagus, liver, stomach, vascular system): 0.0601 mg/kg/day

COP(=S)(OC)Oc1ccc(SC)c(C)c1
outcome [1]: inactive; no positive results

O=P1(NCCCl)OCCCN1CCCl (configuration not stated)
Potency (TD50_Rat_Note: positive test results only by intraperitoneal or intravenous injection, TargetSites_Rat_Female: uterus): 0.739 mg/kg/day

CCn1cc(C(=O)O)c(=O)c2ccc(C)nc21
Potency (TD50_Rat_Note: TD50 is harmonic mean of more than one positive test, TargetSites_Rat_Female: clitoral gland): 201 mg/kg/day

Cc1ccc2c(c1N)C(=O)c1ccccc1C2=O
Potency [2]: 59.2 mg/kg/day

NNC(N)=S
outcome [1]: inactive

FC(F)Cl
outcome [1]: inactive; no positive results

Cc1ccc(N)cc1Cl
outcome [1]: inactive; no positive results

Clc1cc(Cl)cc(-c2cc(Cl)cc(Cl)c2)c1
outcome [1]: inactive

OC(c1ccc(Cl)cc1)(c1ccc(Cl)cc1)C(Cl)(Cl)Cl
outcome [1]: inactive; no positive results

Nc1cc([N+](=O)[O-])ccc1C(=O)O
outcome [1]: inactive; no positive results

O=c1ccc2ccccc2o1
Potency (TD50_Rat_Note: TD50 is harmonic mean of more than one positive test, greater than ten-fold variation among TD50 values for positive res, TargetSites_Rat_Female: liver): 39.2 mg/kg/day

O=S(=O)(O)CCS
outcome: inactive; no positive results

N[C@@H](CC(=O)O)C(=O)O
outcome [1]: inactive; no positive results

CS(=O)(=O)OCCCCOS(C)(=O)=O
outcome: inactive; no positive results

CC[N+](=O)[O-]
outcome [1]: inactive; no positive results

CN(N=O)C(=O)c1c(N(C)N=O)ncn1C
Potency (TargetSites_Rat_BothSexes: stomach): 0.183 mg/kg/day

Cc1cccc(N)c1
outcome: inactive; no positive results

CC(C)CCCCCCOC(=O)c1ccccc1C(=O)OCCCCCCC(C)C
Potency (TD50_Rat_Note: TD50 is harmonic mean of more than one positive test, TD50_Rat_mmol was not calculated for this mixture, but Activiity S, TargetSites_Rat_Female: hematopoietic system, liver): 861 mg/kg/day

CC1=C(C)C(=O)C(C(CCCCCC(=O)O)c2ccccc2)=C(C)C1=O (configuration not stated)
outcome [1]: inactive; no positive results

CN1C(=O)OC(C)(C)C1=O
outcome: inactive; no positive results

ClC1=C(Cl)[C@]2(Cl)[C@@H]3[C@H]4C[C@H]([C@@H]5O[C@H]45)[C@@H]3[C@@]1(Cl)C2(Cl)Cl
outcome [1]: inactive; no positive results

COC(=O)c1ccc(C(=O)OC)cc1
outcome [1]: inactive; no positive results

Oc1ccc(O)cc1
Potency (TD50_Rat_Note: TD50 is harmonic mean of more than one positive test, TargetSites_Rat_Female: hematopoietic system): 82.8 mg/kg/day

Nc1ncn([C@@H]2O[C@H](CO)[C@@H](O)[C@H]2O)c(=O)n1
Potency (TD50_Rat_Note: positive test results only by intraperitoneal or intravenous injection, TargetSites_Rat_Female: NTP bioassay inadequate): 0.17 mg/kg/day

O=C1c2cccc(O)c2C(=O)c2c(O)cccc21
Potency: 245 mg/kg/day

Cc1ccc(OP(=O)(Oc2ccc(C)cc2)Oc2ccc(C)cc2)cc1
outcome [1]: inactive; no positive results

FC(F)=C(F)F
Potency (TD50_Rat_Note: TD50 is harmonic mean of more than one positive test, TargetSites_Rat_Female: hematopoietic system, kidney, liver, vascular system): 107 mg/kg/day

O.[Cd+2].[Cl-].[Cl-]
outcome [1]: inactive; no positive results

CC1(C)S[C@@H]2[C@H](NC(=O)[C@H](N)c3ccccc3)C(=O)N2[C@H]1C(=O)O
outcome [1]: inactive; no positive results

CCCCCCCC(=O)OCC(COC(=O)CCCCCCC)OC(=O)CCCCCCC
Potency: 5490 mg/kg/day

O=c1ccc(=O)[nH][nH]1
outcome [1]: inactive; no positive results

O=C(NCC1CCCCN1)c1cc(OCC(F)(F)F)ccc1OCC(F)(F)F (configuration not stated)
outcome [1]: inactive; no positive results

CN(C)CCN(Cc1cccs1)c1ccccc1
outcome [1]: inactive; no positive results

C=C(C)C(=O)OC
outcome [1]: inactive; no positive results

O=NN1CCOC1=O
Potency (TD50_Rat_Note: TD50 is harmonic mean of more than one positive test, harmonic mean of TD50 includes a value for upper 99% confidence li): 0.385 mg/kg/day

ClC(Cl)=C(c1ccc(Cl)cc1)c1ccc(Cl)cc1
outcome [1]: inactive; no positive results

O=NN(CC(F)(F)F)CC(F)(F)F
outcome [1]: inactive; no positive results

ClCC(Cl)Cl
outcome [1]: inactive; no positive results

Clc1cc2c(cc1Cl)Oc1cc(Cl)c(Cl)cc1O2
Potency (TD50_Rat_Note: TD50 is harmonic mean of more than one positive test, greater than ten-fold variation among TD50 values for positive res, TargetSites_Rat_Female: liver, lung): 2.35e-05 mg/kg/day

[CH3][Hg][Cl]
outcome [1]: inactive; no positive results

CCNC(=S)NCC
Potency (TD50_Rat_Note: TD50 is harmonic mean of more than one positive test, TargetSites_Rat_Female: thyroid gland): 24 mg/kg/day

Cc1cccc(C)c1NC(=O)CN1CCCC1=O
outcome [1]: inactive; no positive results

CS(=O)(=O)c1ccc([C@@H](O)[C@@H](CO)NC(=O)C(Cl)Cl)cc1
outcome [1]: inactive; no positive results

C/C(=C(\CCOC(=O)c1ccccc1)SC(=O)c1ccccc1)N(C=O)Cc1cnc(C)nc1N
outcome [1]: inactive; no positive results
